Assay results from patent US7371768B2, “Pyrazol derivatives, pest control agent comprising the same as active ingredient, and process for producing the same” (Nihon Nohyaku Co., Ltd., priority 2000, dated 2008).
Like-named read-outs stand apart in the source and are kept apart here.

Legend:
[1] = tested on: Chinese hamster lung fibroblast line V79; assay: In vitro intercellular metabolic cooperation inhibition test (IMC); format: cell-based
Experimental: In this Test Example, using an inhibitory action of gap-junctional intercellular communication as an index, the existence of carcinogenicity (tumor-promoting action) of a compound was investigated.
In this test, a mixed culture system of Chinese hamster lung fibroblast line V79 (hgprt+) having hypoxanthine-guanine phosphoribosyltransferase activity and cells having no such activity (hgprt−) was treated by adding thereto the following compounds together with 6-thioguanine (6-TG). When the intercellular communication is normal, the toxic metabolite of 6-TG formed in hgprt+ cells (6-TG sensitive) is transferred into hgprt− cells (6-TG resistant) through gap junction, so that both of the cells die. On the other hand, when the intracellular communication is inhibited by the test compound, only the hgprt− cells survive and form colonies.

[2] = tested on: Nilaparvata lugens; assay: Insecticidal effect on larvae of brown rice planthopper through systemic activity (root uptake); format: in vivo; conditions: for Death rate (%) 0.8 ppm: 0.8 ppm agent solution at rice roots; for Death rate (%) 0.8 ppm / Death rate (%) 3.1 ppm: larvae placed after 3 days, 4th day, 25° C.; for Death rate (%) 3.1 ppm: 3.1 ppm agent solution at rice roots; for insecticidal activity through systemic property, in words: summary of Table 6
Experimental: Roots of young rice seedlings (height: about 10 cm) planted in a plastic cup were washed with water and soil was washed away so as not to damage the fine roots. The stem was pinched by a urethane tip (diameter: 3 cm, height: 2 cm) having a cut line and the roots were inserted into an Erlenmeyer flask to which 50 ml of an agent solution (an aqueous dilution of the agricultural and horticultural insecticide of the present invention prepared in accordance with Formulation Example 1) was placed beforehand (2 to 3 young rice seedlings/flask). The urethane chip was wedged into the mouse of the flask to fix the rice seedlings. A glass tube (diameter: 3 cm, height: 5 cm) was placed thereon, wedged into the urethane chip, and fixed with a tape. The flask in such state was kept in a constant temperature room at 25° C. for 3 days. Five larvae of Nilaparvata lugens were placed in the glass tube and then the tube was capped with a urethane chip, followed by keeping in the constant temperature room at 25° C. (duplicates at a concentration). The mortality and agony of the larvae were investigated on 4th day after the treatment to obtain a death rate (%) taking an agonizing insect as a ½ dead insect. This test was carried out on two agent solutions different in the concentration of the active ingredient. The results are shown in Table 6 (the compound numbers in the table correspond to the numbers in Table 1).
Additionally, as reference compounds, Compounds I, II and III described in JP-A-10-338676 were similarly tested.

[3] = tested on: Callosobruchus chinensis; assay: Insecticidal effect on imagoes of adzuki bean weevil, spray test; format: in vivo; conditions: 500 ppm, sprayed, 25° C., after 4 days, agonizing insect counted as 1/2 dead
Experimental: Two adzuki beans were put in a glass cylinder (inner diameter: 3 cm×length: 15 cm), and 10 imagoes of Callosobruchus chinensis were set free therein. An agricutural and horticultural insecticide of the present invention was prepared in accordance with Formulation and diluted with water, and 0.3 ml of the resulting dilution was sprayed in the above glass cylinder with a spray tower (manufactured by Mizuho Rika) (duplicates at a concentration). The cylinder was kept in temperature room at 25° C., and the mortality and agony of thee larvae were investigated after 4 days from the treatment to obtain a death rate (%) taking an agonizing insect as a ½ dead insect. The results obtained are shown in Table 4 (the compound numbers in the table correspond to the numbers in Table 1).

[4] = tested on: Nilaparvata lugens; assay: Insecticidal effect on larvae of brown rice planthopper, spray test; format: in vivo; conditions: 500 ppm, sprayed, 4th instar larvae, 25° C., after 5 days; agonizing insect counted as 1/2 dead
Experimental: A rice seedling was planted in a glass cylinder (inner diameter: 3 cm×length: 17 cm), and five 4th instar larvae of Nilaparvata lugens were set free therein. An agricultural and horticultural insecticide of the present invention was prepared in accordance with Formulation Example 3 and diluted with water, and 0.5 ml of the resulting dilution was sprayed into the above glass cylinder with a spraying tower (manufactured by Mizuho Rika) (duplicates at a concentration). The cylinder was kept in a constant temperature room at 25° C., and the mortality and agony of the larvae were investigated after 5 days from the treatment to obtain a death rate (%) taking an agonizing insect as a ½ dead insect. The results obtained are shown in Table 2 (the compound numbers in the table correspond to the numbers in Table 1).

[5] = tested on: Plutella xylostella; assay: Insecticidal effect on larvae of diamond back moth, cabbage leaf disc dip; format: in vivo; conditions: 500 ppm, 3-instar larvae, 25° C., after 4 days, agonizing insect counted as 1/2 dead
Experimental: A disc (diameter: 6 cm) cut out of a cabbage leaf was for 1 minute in an aqueous dilution of the agricultural and horticultural insecticide of the present invention prepared in accordance with Formulation Example 1, then air-dried, and placed in a plastic cup (inner diameter: 7 cm). Five 3-instar larvae of Plutella xylostella were set free in the cup (duplicates at a concentration). The cup was kept in a constant temperature room at 25° C., and the death and agony of the larvae were investigated after 4 days from the treatment to obtain a death rate (%) taking an agonizing insect as a ½ dead insect. The results are shown in Table 3 (the compound numbers in the following table below correspond to the numbers in Table 1).

[6] = tested on: Myzus persicae; assay: Insecticidal effect on larvae of green peach aphid, leaf soak; format: in vivo; conditions: 500 ppm, leaves soaked about 5 seconds, 25° C., 4th day after treatment
Experimental: Water was put in a screw bottle (volume: 10 ml), and a leaftalk of Japanese radish was placed therein and then inoculated with 5 to 6 insects of Myzus persicae per leave. After the inoculation, the bottle was put in a glass cylinder (diameter: 3.5 cm; height: 15 cm, with a mesh cover), and the insects were let to proliferate in a constant temperature room kept at 25° C. for 3 days. The imagoes on the leaves were removed, and the leaves were soaked in an aqueous dilution of an agricultural and horticultural insecticide of the present invention prepared in accordance with Formulation Example 3 (for about 5 seconds) and then returned into the glass cylinder (duplicates at a concentration). The cylinder was kept in the constant temperature room at 25° C., and the number of the insects on the leaves was counted on the 4th day after the treatment to obtain a death rate (%) based on the results. The results obtained are shown in Table 5 (the compound numbers in the table correspond to the numbers in Table 1).

[7] = tested on: Cat Flea; assay: Insecticidal effect on cat flea, treated filter; format: in vivo; conditions: 0.7 mg/filter; mortality investigated on 1st day and 2nd day after treatment
Experimental: Onto a round filter (diameter: 10 cm) was added dropwise 0.7 ml of an agent solution diluted to a predetermined concentration. After drying, the filter was placed on the bottom of a cylinder (diameter: 10 cm×height: 30 cm). Ten fleas were set free therein and the mortality was investigated on 1st day and 2nd day after the treatment to calculate a death rate (%) based on the results. The results are shown in Table 7 (the compound numbers in the table correspond to the numbers in Table 1).

SMILES | IMC test result (inhibition of gap-junctional intercellular communication, index of tumor-promoting action) [1] | colony forming rate ([1]; at 7.5 and 15 μg/ml, V79 hgprt+/hgprt- mixed culture with 6-thioguanine) | Death rate (%) 0.8 ppm [2] [%] | Death rate (%) 3.1 ppm [2] [%] | insecticidal activity through systemic property, in words [2] | Death rate (%) [3] [%] | Death rate (%) [4] [%] | Death rate (%) [5] [%] | Death rate (%) [6] [%] | IMC test result (inhibition of gap-junctional intercellular communication, index of tumor-promoting action) ([1]; V79 hgprt+/hgprt- mixed culture with 6-thioguanine) | Death rate (%) [7] [%]
CSc1c(C#N)nn(-c2c(Cl)cc(C(F)(F)F)cc2Cl)c1NCc1ccncc1 [Compound I] | positive | significant increase | 100 | 100 | insecticidal activity through a high systemic property |  |  |  |  |  | 
N#Cc1nn(-c2c(Cl)cc(C(F)(F)F)cc2Cl)c(NCc2ccncc2)c1SCF [Compound No. 1, 1-(2,6-dichloro-4-trifluoromethylphenyl)-4-fluoromethylthio-5-(pyridin-4-ylmethylamino)pyrazole-3-carbonitrile] |  |  | 100 | 100 |  | 100 | 100 | 100 | 100 |  | 
N#Cc1nn(-c2c(Cl)cc(C(F)(F)F)cc2Cl)c(NCc2ccccn2)c1SC(F)F [Compound No. 2, 1-(2,6-dichloro-4-trifluoromethylphenyl)-4-difluoromethylthio-5-(pyridin-2-ylmethylamino)pyrazole-3-carbonitrile] |  |  | 100 | 100 |  | 100 | 100 | 100 | 100 | negative | 100
N#Cc1nn(-c2c(Cl)cc(C(F)(F)F)cc2Cl)c(NCc2ccccn2)c1SC(F)(F)F [III] |  |  | 0 | 0 | obviously inferior effect |  |  |  |  |  | 
N#Cc1nn(-c2c(Cl)cc(C(F)(F)F)cc2Cl)c(NCc2ccncc2)c1SC(F)(F)F [II] |  |  | 20 | 50 | obviously inferior effect |  |  |  |  |  | 
